Experimental data taken from the supplement of paper PMC10307832.

What was measured:
Experiment in all cases: relative viability (nuclei count vs DMSO), 5 days (fraction); higher = more cells survive
[1] = tested on: LK-2
Outline: (§1)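 Lung cancer cell lines in 1536-well plates got either a single drug or a fixed anchor-drug dose together with five library-drug doses (not always all listed) in √10 steps, by pin tool, on the day after seeding. Nuclei were counted after 5 days, and relative viability is the treated-to-vehicle ratio of nuclei counts. Values are medians of duplicate plates.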

[2] = tested on: NCI-H647
Outline: as §1

[3] = tested on: SW 900
Outline: as §1

[4] = tested on: A-427
Outline: as §1

[5] = tested on: SK-LU-1
Outline: as §1

[6] = tested on: NCI-H2085
Outline: as §1

[7] = tested on: NCI-H322M
Outline: as §1

[8] = tested on: NCI-H3122
Outline: as §1

[9] = tested on: PC-14
Outline: as §1

[10] = tested on: UMC-11
Outline: as §1

[11] = tested on: NCI-H1993
Outline: as §1

[12] = tested on: NCI-H1734
Outline: as §1

[13] = tested on: H3255
Outline: as §1

[14] = tested on: NCI-H1651
Outline: as §1

[15] = tested on: EKVX
Outline: as §1

[16] = tested on: NCI-H460
Outline: as §1

[17] = tested on: RERF-LC-KJ
Outline: as §1

[18] = tested on: NCI-H1437
Outline: as §1

[19] = tested on: NCI-H2087
Outline: as §1

[20] = tested on: NCI-H2405
Outline: as §1

[21] = tested on: NCI-H2347
Outline: as §1

[22] = tested on: NCI-H358
Outline: as §1

[23] = tested on: COR-L23
Outline: as §1

[24] = tested on: NCI-H23
Outline: as §1

[25] = tested on: LXF-289
Outline: as §1

Nc1cccc2c1CN(C1CCC(=O)NC1=O)C2=O (centres undefined) [Lenalidomide] + CCNC(=O)c1noc(-c2cc(C(C)C)c(O)cc2O)c1-c1ccc(CN2CCOCC2)cc1 [Luminespib] (partner 0.01 µM)
relative viability ([1]; first compound 0.253 µM): 0.195
relative viability ([1]; first compound 0.8 µM): 0.179
relative viability ([1]; first compound 2.53 µM): 0.173
relative viability ([1]; first compound 8 µM): 0.193
relative viability ([2]; first compound 0.253 µM): 0.133
relative viability ([2]; first compound 0.8 µM): 0.284
relative viability ([2]; first compound 2.53 µM): 0.203
relative viability ([2]; first compound 8 µM): 0.26
relative viability ([3]; first compound 0.253 µM): 0.195
relative viability ([3]; first compound 2.53 µM): 0.189
relative viability ([3]; first compound 8 µM): 0.183
relative viability ([4]; first compound 0.253 µM): 0.807
relative viability ([4]; first compound 0.8 µM): 1
relative viability ([4]; first compound 2.53 µM): 0.914
relative viability ([4]; first compound 8 µM): 1.01
relative viability ([5]; first compound 0.253 µM): 0.177
relative viability ([5]; first compound 0.8 µM): 0.218
relative viability ([5]; first compound 2.53 µM): 0.198
relative viability ([5]; first compound 8 µM): 0.226
relative viability ([6]; first compound 0.253 µM): 0.487
relative viability ([6]; first compound 0.8 µM): 0.487
relative viability ([6]; first compound 2.53 µM): 0.367
relative viability ([6]; first compound 8 µM): 0.437
relative viability ([7]; first compound 0.253 µM): 0.81
relative viability ([7]; first compound 0.8 µM): 0.982
relative viability ([7]; first compound 2.53 µM): 1.05
relative viability ([7]; first compound 8 µM): 1.01
relative viability ([8]; first compound 0.253 µM): 0.0887
relative viability ([8]; first compound 0.8 µM): 0.0863
relative viability ([8]; first compound 2.53 µM): 0.0693
relative viability ([8]; first compound 8 µM): 0.102
relative viability ([9]; first compound 0.253 µM): 0.152
relative viability ([9]; first compound 0.8 µM): 0.191
relative viability ([9]; first compound 2.53 µM): 0.151
relative viability ([9]; first compound 8 µM): 0.133
relative viability ([10]; first compound 0.253 µM): 1.02
relative viability ([10]; first compound 0.8 µM): 1.03
relative viability ([10]; first compound 2.53 µM): 1.04
relative viability ([10]; first compound 8 µM): 0.953
relative viability ([11]; first compound 0.253 µM): 0.66
relative viability ([11]; first compound 0.8 µM): 0.726
relative viability ([11]; first compound 2.53 µM): 0.767
relative viability ([11]; first compound 8 µM): 0.743
relative viability ([12]; first compound 0.253 µM): 0.157
relative viability ([12]; first compound 0.8 µM): 0.202
relative viability ([12]; first compound 2.53 µM): 0.206
relative viability ([12]; first compound 8 µM): 0.196
relative viability ([13]; first compound 0.253 µM): 0.732
relative viability ([13]; first compound 0.8 µM): 0.753
relative viability ([13]; first compound 2.53 µM): 0.915
relative viability ([13]; first compound 8 µM): 0.876
relative viability ([14]; first compound 0.253 µM): 0.713
relative viability ([14]; first compound 0.8 µM): 0.895
relative viability ([14]; first compound 2.53 µM): 0.987
relative viability ([14]; first compound 8 µM): 1.03
relative viability ([15]; first compound 0.253 µM): 0.807
relative viability ([15]; first compound 0.8 µM): 0.84
relative viability ([15]; first compound 2.53 µM): 0.955
relative viability ([15]; first compound 8 µM): 0.801
relative viability ([16]; first compound 0.253 µM): 0.0318
relative viability ([16]; first compound 0.8 µM): 0.0303
relative viability ([16]; first compound 2.53 µM): 0.035
relative viability ([16]; first compound 8 µM): 0.0323
relative viability ([17]; first compound 0.253 µM): 1.28
relative viability ([17]; first compound 0.8 µM): 1.29
relative viability ([17]; first compound 2.53 µM): 1.12
relative viability ([17]; first compound 8 µM): 1.32
relative viability ([18]; first compound 0.253 µM): 1.19
relative viability ([18]; first compound 0.8 µM): 1.08
relative viability ([18]; first compound 2.53 µM): 1.11
relative viability ([18]; first compound 8 µM): 1.23
relative viability ([19]; first compound 0.253 µM): 0.233
relative viability ([19]; first compound 0.8 µM): 0.156
relative viability ([19]; first compound 2.53 µM): 0.14
relative viability ([19]; first compound 8 µM): 0.169
relative viability ([20]; first compound 0.253 µM): 0.665
relative viability ([20]; first compound 0.8 µM): 0.76
relative viability ([20]; first compound 2.53 µM): 0.757
relative viability ([20]; first compound 8 µM): 0.644
relative viability ([21]; first compound 0.253 µM): 0.507
relative viability ([21]; first compound 0.8 µM): 0.627
relative viability ([21]; first compound 2.53 µM): 0.454
relative viability ([21]; first compound 8 µM): 0.249
relative viability ([22]; first compound 0.253 µM): 0.419
relative viability ([22]; first compound 0.8 µM): 0.377
relative viability ([22]; first compound 2.53 µM): 0.437
relative viability ([22]; first compound 8 µM): 0.576
relative viability ([23]; first compound 0.253 µM): 0.683
relative viability ([23]; first compound 0.8 µM): 0.766
relative viability ([23]; first compound 2.53 µM): 0.735
relative viability ([23]; first compound 8 µM): 0.758
relative viability ([24]; first compound 0.253 µM): 0.218
relative viability ([24]; first compound 0.8 µM): 0.173
relative viability ([24]; first compound 2.53 µM): 0.196
relative viability ([24]; first compound 8 µM): 0.228
relative viability ([25]; first compound 0.253 µM): 0.799
relative viability ([25]; first compound 0.8 µM): 0.686
relative viability ([25]; first compound 2.53 µM): 0.768
relative viability ([25]; first compound 8 µM): 0.725
